Tests used:
Assay type in all cases: cell-based
[1] = system: human liver cell organoids; assay: Culturing liver cell organoids in absence of Matrigel; number of viable cells (CellTiter-Glo 3D); conditions: concentration not given
Procedure: Human liver cell organoids, established from primary human liver cells, were supplemented with TrypLE Express (Thermo Fisher Scientific) and incubated at 37° C. for 5 minutes to dissociate them into single cells.
The cells were then collected and suspended in proliferation medium separately supplemented with 2, 5, 10, 20, or 50 μM TDI-011536 (CAS No. 2687970-96-1), and […] seeded into an ultra-low attachment 96-well plate at 2,000 cells/well. The preferred seeding density is 2,000 to 4,000 cells/well. In addition, cells in proliferation medium supplemented with no TDI-011536 were prepared as a control.
The proliferation medium was a medium consisting of a basal medium (Advanced DMEM/F-12 medium, 10 mM HEPES, 2 mM GlutaMAX, 100 U penicillin, 100 μg/mL streptomycin) supplemented with 10% afamin-Wnt-3A conditioned medium, 2% R-spondin 1 conditioned medium, 2% Noggin conditioned medium, and 20 ng/ml Oncostatin M.
On day 6 after seeding, the number of viable cells in the human liver cell organoids was measured using a commercially available kit (product name “CellTiter-Glo 3D,” Promega Corporation).

[2] = system: human small intestine-derived organoids dissociated into single cells; assay: Organoid formation from single cells
Excerpt: Therefore, to examine whether signals from cell-to-cell interactions are involved in cell proliferation mediated by transcriptional regulation of YAP-TEAD by LATS inhibition, human small intestine-derived organoids were dissociated into single cells and then observed organoid formation from the single cells.
FIG. 9 presents representative photographs showing the results of organoid formation from single cells in the presence or absence of Matrigel (registered trademark) and in the absence or presence of Lats-IN (final concentration: 10 μM). In FIG. 9, the arrowheads indicate cells or organoids. In addition, D1, D4, and D7 indicate the first, fourth, and seventh days, respectively, after the start of culture. […] In addition, the percentage (%) of cells that formed organoids among the seeded single cells is also shown.

[3] = system: stomach-derived organoids, biliary tract-derived organoids, and mammary gland-derived organoids; assay: Culture of organoids derived from various organs in absence of Matrigel; conditions: Lats-IN 10 μM
Procedure: It was examined whether organoids derived from various organs could be cultured in the absence of Matrigel (registered trademark) and in the absence or presence of Lats-IN (final concentration: 10 μM).
FIG. 11 presents representative photographs showing the results of culturing stomach-derived organoids, biliary tract-derived organoids, and mammary gland-derived organoids in the absence of Matrigel (registered trademark) and Lats-IN (Ctrl), or in the absence of Matrigel (registered trademark) and in the presence of Lats-IN (Lats-IN). The scale bar is 100 μm.

[4] = system: phosphorylated YAP (Ser127); assay: Examination of phosphorylation of YAP by Western blotting in human small intestine-derived organoids; conditions: 10 μM; in both presence and absence of Matrigel; compared to when Lats-IN is absent
Procedure: Human small intestine-derived organoids were cultured in the absence and presence of Matrigel (registered trademark) and in the absence and presence of a LATS kinase inhibitor (final concentration: 10 μM), and phosphorylation of YAP was confirmed by Western blotting.
In FIG. 4, “pYAP” indicates phosphorylated YAP, and “YAP” indicates total YAP (the sum of phosphorylated YAP and non-phosphorylated YAP). The antibody against phosphorylated YAP used was phospho-YAP (Ser127) (#4911, Cell Signaling Technology, Inc.). The antibody against total YAP used was total-YAP (#14074, Cell Signaling Technology, Inc.).

[5] = system: human small intestine-derived organoid; assay: Culture of organoids in absence of Matrigel with LATS kinase inhibitor; cell number by ATP (CellTiter-Glo 3D)
Procedure: In this experimental example, a human small intestine-derived organoid and human large intestine-derived organoid established in the presence of Matrigel (registered trademark) were cultured in the absence of Matrigel (registered trademark) and in the presence of a LATS kinase inhibitor (final concentration: 10 μM), and their dynamics were observed. The procedure was the same as in Experimental Example 1, except that each organoid was cultured in the absence of Matrigel (registered trademark).
The upper left panel of FIG. 3 is a photograph of a control (Ctrl) human small intestine-derived organoid cultured in the absence of Lats-IN, and the upper center panel of FIG. 3 is a photograph of a human small intestine-derived organoid cultured in the presence of Lats-IN. The scale bar is 100 μm. […] The vertical axis of the graph represents luminescence intensity (relative value) indicating the amount of ATP present. […]
FIG. 8 presents graphs showing the results of measuring the proliferation of the human small intestine-derived and human large intestine-derived organoids in the absence of Lats-IN (Ctrl), in the presence of Lats-IN (Lats-IN), in the presence of Lats-IN and MYF01-37 (Lats-IN+MYF), and in the presence of MYF01-37 (MYF). The cell proliferation was measured by measuring ATP using a commercially available kit (product name “CellTiter-Glo 3D,” Promega Corporation). The vertical axis of the graph represents luminescence intensity (relative value) indicating the amount of ATP present. […]
FIG. 26 presents graphs showing the results of measuring cell number in each organoid after 6 days of culture by measuring ATP using a commercially available kit (product name “CellTiter-Glo 3D,” Promega Corporation). The vertical axis of the graph represents luminescence intensity (relative value) indicating the amount of ATP present.

Structure (SMILES): O=C(N=c1sccn1Cc1ccccc1)c1c[nH]c2ncccc12 [Lats-IN]
- increase in number of viable cells [1]: about three-fold
- organoid formation from single cells ([2]; absence of Matrigel, presence of Lats-IN 10 μM, up to day 7): proliferated from single cells and formed organoids
- percentage of cells that formed organoids ([2]; presence of Matrigel and Lats-IN compared with absence of Matrigel and presence of Lats-IN): higher
- cell proliferation (photographs) [3]: activated
- phosphorylation of YAP [4]: significantly suppressed
- cell proliferation (ATP luminescence) ([5]; Experimental Example 5, Lats-IN 10 μM alone): activated
- cell proliferation (cell number, ATP luminescence) ([5]; final concentration 10 μM, 7 days of culture, vs control): significantly activated
